Results published in patent US20210221866A1, “PROTEASE-RESISTANT LIPIDATED GLP-1 ANALOGS” (MEDIMMUNE LIMITED, priority 2015, published 2021).
Like-named read-outs stand apart in the source and are kept apart here. Numbered stars: 1 amine (or outer) side, 2 acyl side, 3 side chain; on linkers, the order of the positions; unused ones are H or OH. Square brackets hold non-standard residues; d marks the D form. Side chains are listed from the residue outwards. Peptide text beside a SMILES is read from it. * marks the point of attachment. γGlu = O=C(O)[C@H](CCC(=O)[*:2])N[*:1]; αMeF = C[C@](N)(Cc1ccccc1)C(=O)O; αMeK = C[C@](N)(CCCCN)C(=O)O; Lauroyl = CCCCCCCCCCCC(=O)*; αMeS = C[C@](N)(CO)C(=O)O; AEEA = NCCOCCOCC(=O)O; Aib = CC(C)(N)C(=O)O

Assays:
Type in all cases: cell-based
[1] = molecular target: T1, human GLP-1 receptor (GLP-1R) (Homo sapiens, UniProt P43220); experiment: cAMP assay, human GLP-1R cells
T1 construct: expressed in transfected cells; host or cells: HEK293 cells or CHO cells
Summary of the method: (§1)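 Peptide-stimulated cAMP measured by two-step HTRF after a 30 min room-temperature incubation with receptor-expressing cells (hGLP-1R, hGIPR at 1×10^5 cells/ml; hGCGR at 2×10^5 cells/ml). Duplicate dilutions; EC50 from 4-parameter logistic fit of % Delta F.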

[2] = molecular target: T2, human glucagon receptor (GCGR) (Homo sapiens, UniProt P47871); experiment: cAMP assay, human GCGR cells
T2 construct: expressed in transfected cells; host or cells: HEK293 cells or CHO cells
Summary of the method: as §1

[3] = molecular target: T3, human glucose-dependent insulinotropic peptide receptor (GIPR) (Homo sapiens, UniProt P48546); experiment: cAMP assay, human GIPR cells
T3 construct: expressed in transfected cells; host or cells: HEK293 cells or CHO cells
T3 sequence (P48546 22-466): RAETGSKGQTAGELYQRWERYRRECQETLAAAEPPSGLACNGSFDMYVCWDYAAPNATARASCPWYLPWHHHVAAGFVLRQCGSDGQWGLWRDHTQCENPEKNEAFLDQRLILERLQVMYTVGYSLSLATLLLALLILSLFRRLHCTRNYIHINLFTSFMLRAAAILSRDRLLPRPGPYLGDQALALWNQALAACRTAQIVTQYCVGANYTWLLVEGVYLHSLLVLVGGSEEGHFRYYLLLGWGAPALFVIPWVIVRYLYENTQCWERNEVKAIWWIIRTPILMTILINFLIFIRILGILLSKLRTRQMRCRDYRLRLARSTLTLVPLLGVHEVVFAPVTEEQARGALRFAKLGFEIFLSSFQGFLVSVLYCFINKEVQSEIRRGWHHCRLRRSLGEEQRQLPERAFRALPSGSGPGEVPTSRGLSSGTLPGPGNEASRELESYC
Summary of the method: as §1

GLP-1R (INS1e cells) = molecular target: T4, GLP-1R (INS1e cells) (Rattus norvegicus, UniProt P32301); experiment: INS1e assay, cAMP activity at GLP-1R
T4 construct: endogenous in cells; host or cells: INS1e cells
T4 sequence (P32301 22-463): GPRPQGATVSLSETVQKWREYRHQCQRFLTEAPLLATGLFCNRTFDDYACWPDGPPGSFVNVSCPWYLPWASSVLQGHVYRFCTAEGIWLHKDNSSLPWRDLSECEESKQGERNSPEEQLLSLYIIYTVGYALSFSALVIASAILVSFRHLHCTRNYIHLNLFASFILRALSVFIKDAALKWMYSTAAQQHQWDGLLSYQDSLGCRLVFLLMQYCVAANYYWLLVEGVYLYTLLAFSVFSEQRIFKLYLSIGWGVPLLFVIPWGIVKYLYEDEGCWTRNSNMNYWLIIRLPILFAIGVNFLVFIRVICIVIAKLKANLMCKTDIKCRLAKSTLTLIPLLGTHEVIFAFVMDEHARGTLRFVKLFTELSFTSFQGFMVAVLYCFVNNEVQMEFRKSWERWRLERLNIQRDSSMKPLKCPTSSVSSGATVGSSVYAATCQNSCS

[4] = Table 8, substituted and mono-lipidated peptides, mean of n1 and n2, read-out: INS1e assay EC50 Mean pM GLP-1R
[5] = Table 8, substituted and mono-lipidated peptides, replicate n1, read-out: INS1e assay EC50 GLP-1R n1
[6] = Table 8, substituted and mono-lipidated peptides, replicate n2, read-out: INS1e assay EC50 GLP-1R n2
[7] = Table 9, bis-lipidated peptides, mean of n1 and n2, read-out: Primary assay EC50 Mean pM GLP-1R
[8] = Table 9, bis-lipidated peptides, replicate n1, read-out: Primary assay EC50 GLP-1R n1
[9] = Table 9, bis-lipidated peptides, replicate n2, read-out: Primary assay EC50 GLP-1R n2
[10] = Table 9, bis-lipidated peptides, first replicate, read-out: Primary assay EC50 Gluc-R (n1)
[11] = Table 9, bis-lipidated peptides, second replicate, read-out: Primary assay EC50 Gluc-R (n2)
[12] = Table 9, bis-lipidated peptides, first replicate, read-out: Primary assay EC50 GIP-R (n1)
[13] = Table 9, bis-lipidated peptides, second replicate, read-out: Primary assay EC50 GIP-R (n2)
[14] = Table 10, bis-lipidated peptides, mean of n1 and n2, read-out: INS1e assay EC50 Mean pM GLP-1R
[15] = Table 10, bis-lipidated peptides, replicate n1, read-out: INS1e assay EC50 GLP-1R n1
[16] = Table 10, bis-lipidated peptides, replicate n2, read-out: INS1e assay EC50 GLP-1R n2

T1 sequence (P43220 24-463): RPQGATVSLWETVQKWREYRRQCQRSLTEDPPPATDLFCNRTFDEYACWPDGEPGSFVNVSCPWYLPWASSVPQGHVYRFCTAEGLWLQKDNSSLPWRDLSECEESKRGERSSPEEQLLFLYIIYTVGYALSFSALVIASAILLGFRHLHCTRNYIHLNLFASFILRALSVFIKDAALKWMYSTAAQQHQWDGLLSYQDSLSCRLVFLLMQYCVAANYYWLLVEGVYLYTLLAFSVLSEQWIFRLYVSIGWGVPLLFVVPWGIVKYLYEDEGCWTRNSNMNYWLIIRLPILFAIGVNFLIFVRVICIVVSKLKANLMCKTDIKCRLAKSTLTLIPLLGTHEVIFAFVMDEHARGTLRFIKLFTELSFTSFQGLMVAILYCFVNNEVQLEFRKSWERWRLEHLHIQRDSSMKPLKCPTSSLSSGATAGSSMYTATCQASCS
T2 sequence (P47871 26-477): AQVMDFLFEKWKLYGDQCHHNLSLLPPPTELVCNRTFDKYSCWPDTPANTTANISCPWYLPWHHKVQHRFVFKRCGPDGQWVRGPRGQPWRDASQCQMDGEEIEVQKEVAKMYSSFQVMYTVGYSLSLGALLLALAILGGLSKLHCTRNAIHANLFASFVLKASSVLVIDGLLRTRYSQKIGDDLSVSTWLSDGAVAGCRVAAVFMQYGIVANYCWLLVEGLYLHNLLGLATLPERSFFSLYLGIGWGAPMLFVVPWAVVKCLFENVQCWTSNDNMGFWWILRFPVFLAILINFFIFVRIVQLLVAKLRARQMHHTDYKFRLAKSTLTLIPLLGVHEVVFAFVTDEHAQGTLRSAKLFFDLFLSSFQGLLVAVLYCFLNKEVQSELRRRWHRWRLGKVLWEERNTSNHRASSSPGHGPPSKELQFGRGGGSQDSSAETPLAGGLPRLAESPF

Structure (SMILES) | EC50 (GLP-1R (INS1e cells); [4]) | EC50 (GLP-1R (INS1e cells); [5]) | EC50 (GLP-1R (INS1e cells); [6]) | EC50 [1, 7] | EC50 [1, 8] | EC50 [1, 9] | EC50 [2, 10] | EC50 [2, 11] | EC50 [3, 12] | EC50 [3, 13] | EC50 (GLP-1R (INS1e cells); [14]) | EC50 (GLP-1R (INS1e cells); [15]) | EC50 (GLP-1R (INS1e cells); [16]) | other results
CCCCCCCCCCCC(=O)NCCOCCOCC(=O)NCCCC[C@H](NC(=O)[C@@H](NC(=O)[C@@H](NC(=O)[C@](C)(Cc1ccccc1)NC(=O)[C@H](C)NC(=O)[C@@H](NC(=O)[C@](C)(Cc1ccccc1)NC(=O)[C@H](CCC(=O)O)NC(=O)[C@](C)(CCCCN)NC(=O)[C@H](C)NC(=O)[C@H](C)NC(=O)[C@H](CCC(=O)O)NC(=O)CNC(=O)[C@H](CCC(=O)O)NC(=O)[C@H](CC(C)C)NC(=O)[C@](C)(Cc1ccccc1)NC(=O)[C@H](CO)NC(=O)[C@](C)(CO)NC(=O)[C@@H](NC(=O)[C@H](CC(=O)O)NC(=O)[C@H](CO)NC(=O)[C@@H](NC(=O)[C@](C)(Cc1ccccc1)NC(=O)[C@H](CO)NC(=O)CNC(=O)[C@H](CCC(=O)O)NC(=O)C(C)(C)NC(=O)[C@@H](N)Cc1c[nH]cn1)[C@@H](C)O)C(C)C)[C@@H](C)CC)C(C)C)C(C)C)C(=O)NCC(=O)NCC(N)=O [compound 170] | 462 pM | 548 pM | 376 pM | – | – | – | – | – | – | – | – | – | – | EC50 ([1]; cAMP activity, first determination (n1), read-out: Primary assay EC50 GLP-1R n1): 8 pM; EC50 ([1]; cAMP activity, mean of n1 and n2, read-out: Mean pM GLP-1R): 6.2 pM; EC50 ([1]; cAMP activity, second determination (n2), read-out: Primary assay EC50 GLP-1R n2): 4.5 pM; EC50 ([2]; cAMP activity, second determination (n2), read-out: Primary assay EC50 Gluc-R): ≥ 28 nM; EC50 ([3]; cAMP activity, first determination (n1), read-out: Primary assay EC50 GIP-R): ≥ 28 nM; EC50 ([3]; cAMP activity, second determination (n2), read-out: Primary assay EC50 GIP-R): ≥ 28 nM
CC[C@H](C)[C@H](NC(=O)[C@](C)(Cc1ccccc1)NC(=O)[C@H](CCC(=O)O)NC(=O)[C@](C)(CCCCN)NC(=O)[C@H](C)NC(=O)[C@H](C)NC(=O)[C@H](CCC(=O)O)NC(=O)CNC(=O)[C@H](CCC(=O)O)NC(=O)[C@H](CC(C)C)NC(=O)[C@](C)(Cc1ccccc1)NC(=O)[C@H](CO)NC(=O)[C@](C)(CO)NC(=O)[C@@H](NC(=O)[C@H](CC(=O)O)NC(=O)[C@H](CO)NC(=O)[C@@H](NC(=O)[C@](C)(Cc1ccccc1)NC(=O)[C@H](CO)NC(=O)CNC(=O)[C@H](CCC(=O)O)NC(=O)C(C)(C)NC(=O)[C@@H](N)Cc1c[nH]cn1)[C@@H](C)O)C(C)C)C(=O)N[C@@H](C)C(=O)N[C@@](C)(Cc1ccccc1)C(=O)N[C@H](C(=O)N[C@H](C(=O)N[C@@H](CCCCNC(=O)COCCOCCNC(=O)COCCOCCNC(=O)COCCOCCNC(=O)CCCCCCCCCCCCCCCCC(=O)O)C(=O)NCC(=O)NCC(N)=O)C(C)C)C(C)C [compound 199] | 1460 pM | 787 pM | 2130 pM | – | – | – | – | – | – | – | – | – | – | EC50 ([1]; mean of n1 and n2, read-out: Mean pM GLP-1R): 18.3 pM; EC50 ([1]; replicate n1, read-out: Primary assay EC50 GLP-1R n1): 29 pM; EC50 ([1]; replicate n2, read-out: Primary assay EC50 GLP-1R n2): 7.5 pM; EC50 ([2]; second replicate (n2), read-out: Primary assay EC50 Gluc-R): ≥ 25 nM; EC50 ([3]; first replicate, read-out: Primary assay EC50 GIP-R): ≥ 25 nM; EC50 ([3]; second replicate (n2), read-out: Primary assay EC50 GIP-R): ≥ 25 nM
CCCCCCCCCCCC(=O)N[C@@H](CCC(=O)NCCOCCOCC(=O)NCCOCCOCC(=O)NCCCC[C@H](NC(=O)[C@H](CO)NC(=O)[C@](C)(CO)NC(=O)[C@@H](NC(=O)[C@H](CC(=O)O)NC(=O)[C@H](CO)NC(=O)[C@@H](NC(=O)[C@](C)(Cc1ccccc1)NC(=O)[C@H](CO)NC(=O)CNC(=O)[C@H](CCC(=O)O)NC(=O)C(C)(C)NC(=O)[C@@H](N)Cc1c[nH]cn1)[C@@H](C)O)C(C)C)C(=O)N[C@@H](CC(C)C)C(=O)N[C@@H](CCC(=O)O)C(=O)NCC(=O)N[C@@H](CCC(=O)O)C(=O)N[C@@H](C)C(=O)N[C@@H](C)C(=O)N[C@@](C)(CCCCN)C(=O)N[C@@H](CCC(=O)O)C(=O)N[C@@H](Cc1ccccc1)C(=O)N[C@H](C(=O)N[C@@H](C)C(=O)N[C@@H](Cc1c[nH]c2ccccc12)C(=O)N[C@@H](CCCCNC(=O)COCCOCCNC(=O)COCCOCCNC(=O)CC[C@H](NC(=O)CCCCCCCCCCC)C(=O)O)C(=O)N[C@H](C(=O)N[C@@H](CCC(=O)O)C(=O)NCC(=O)NCC(N)=O)C(C)C)[C@@H](C)CC)C(=O)O [compound 264] (H-H[Aib]EGS[αMeF]TSDV[αMeS]SK([AEEA-AEEA-γGlu-Lauroyl])LEGEAA[αMeK]EFIAWK([AEEA-AEEA-γGlu-Lauroyl])VEGG-NH2; N-terminus assumed) | – | – | – | 12.8 pM | 18.2 pM | 7.37 pM | ≥ 22.6 nM | ≥ 22.6 nM | ≥ 22.6 nM | ≥ 22.6 nM | 1030 pM | 963 pM | 1100 pM | –
CCCCCCCCCCCC(=O)N[C@@H](CCC(=O)NCCOCCOCC(=O)NCCOCCOCC(=O)NCCCC[C@H](NC(=O)[C@H](Cc1ccc(O)cc1)NC(=O)[C@H](CO)NC(=O)[C@](C)(CO)NC(=O)[C@@H](NC(=O)[C@H](CC(=O)O)NC(=O)[C@H](CO)NC(=O)[C@@H](NC(=O)[C@](C)(Cc1ccccc1)NC(=O)[C@H](CO)NC(=O)CNC(=O)[C@H](CCC(=O)O)NC(=O)C(C)(C)NC(=O)[C@@H](N)Cc1c[nH]cn1)[C@@H](C)O)C(C)C)C(=O)N[C@@H](CCC(=O)O)C(=O)NCC(=O)N[C@@H](CCC(=O)O)C(=O)N[C@@H](C)C(=O)N[C@@H](C)C(=O)N[C@@](C)(CCCCN)C(=O)N[C@@H](CCC(=O)O)C(=O)N[C@@H](Cc1ccccc1)C(=O)N[C@H](C(=O)N[C@@H](CCCCNC(=O)COCCOCCNC(=O)COCCOCCNC(=O)CC[C@H](NC(=O)CCCCCCCCCCC)C(=O)O)C(=O)N[C@@H](Cc1c[nH]c2ccccc12)C(=O)N[C@H](C(=O)N[C@H](C(=O)N[C@@H](CCC(=O)O)C(=O)NCC(=O)NCC(N)=O)C(C)C)C(C)C)[C@@H](C)CC)C(=O)O [compound 268] (H-H[Aib]EGS[αMeF]TSDV[αMeS]SYK([AEEA-AEEA-γGlu-Lauroyl])EGEAA[αMeK]EFIK([AEEA-AEEA-γGlu-Lauroyl])WVVEGG-NH2; N-terminus assumed) | – | – | – | 4.8 pM | 4.46 pM | 5.05 pM | ≥ 22.2 nM | ≥ 22.2 nM | ≥ 22.2 nM | ≥ 22.2 nM | 1160 pM | 1090 pM | 1230 pM | –
